Values quoted from earlier work in patent publication US20140315941A1, “METHOD OF REDUCING CNS AND GASTRO[…] AFFECTS ASSOCIATED WITH LONG-TERM, DEXTROMETHORPHAN/LOW-DOSE QUINIDINE COMBINATION THERAPY” (Avanir Pharmaceuticals, Inc., priority 2009, published 2014).

Tests used:
[1] = some patients with Huntington's disease; DM doses eight times the maximum antitussive dose
[2] = tested on: pain threshold in CYP2D6 extensive and poor metabolizers; conditions: extensive vs poor metabolizers
CYP2D6 = CYP2D6 (Homo sapiens, UniProt P10635); conditions: in vitro
CYP2D6, sequence (P10635 whole entry): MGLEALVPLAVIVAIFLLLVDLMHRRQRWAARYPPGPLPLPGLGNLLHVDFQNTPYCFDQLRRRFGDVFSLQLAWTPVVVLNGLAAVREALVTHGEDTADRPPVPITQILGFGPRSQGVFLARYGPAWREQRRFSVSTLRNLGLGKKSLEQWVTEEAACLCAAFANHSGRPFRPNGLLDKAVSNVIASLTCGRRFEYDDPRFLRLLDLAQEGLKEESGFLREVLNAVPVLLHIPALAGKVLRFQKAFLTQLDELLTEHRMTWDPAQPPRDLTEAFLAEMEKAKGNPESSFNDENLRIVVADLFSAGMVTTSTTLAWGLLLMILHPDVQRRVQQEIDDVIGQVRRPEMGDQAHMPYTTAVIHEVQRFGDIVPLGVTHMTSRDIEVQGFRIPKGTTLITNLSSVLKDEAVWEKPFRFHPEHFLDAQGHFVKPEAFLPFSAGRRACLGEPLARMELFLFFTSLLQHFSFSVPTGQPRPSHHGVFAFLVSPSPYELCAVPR

COc1ccc2c(c1)[C@]13CCCCC1[C@H](C2)N(C)CC3 (single isomer, unassigned; (+)) [DM, (+)-3-methoxy-N-methylmorphinan]
plasma concentrations [1]: undetectable | antinociceptive effects (increase of pain threshold) [2]: significant in poor metabolizers but not in extensive metabolizers

C=C[C@H]1C[N@@]2CC[C@H]1C[C@@H]2[C@@H](O)c1ccnc2ccc(OC)cc12 [Quinidine, quinidine]
inhibition of CYP2D6 activity (potency, words) (CYP2D6): one of the most potent
